For data set [1], the system named is Pseudomonas aeruginosa. In words: Induction of morphological changes in Pseudomonas aeruginosa W35 expressing VIM-2 assessed as localized swelling, elongation with increased cell permeability at 10 ug/ml incubated for 1 hr in presence of meropenem by transmission electron microscopy. In kind it is functional, organism-based. As to conditions: dose 10.0 µg/ml.

Data set [2] can be described thus: Toxicity in ICR mouse assessed as change in body weight at 500 to 2000 mg/kg, ip administered for 14 days. In kind it is organism-based. As to conditions: in vivo, 336 h, dose 500-2000 mg/kg, time 14 day.
In data set [3] the test system is Escherichia coli. In words: Bactericidal activity against Escherichia coli C1580 expressing VIM-2 assessed as induction of bacterial ultrastructural changes by measuring breakdown of cell wall with leakage of cellular contents at 20 ug/ml incubated for 1 hr in presence of meropenem by transmission electron microscopy. The format is functional, organism-based. As to conditions: dose 20.0 µg/ml.

In data set [4] the test system is Pseudomonas aeruginosa. In words: Induction of morphological changes in Pseudomonas aeruginosa W35 expressing VIM-2 at 10 ug/ml incubated for 1 hr by transmission electron microscopy. The format is functional, organism-based. The settings on record: dose 10.0 µg/ml.
The nature of data set [5]: Toxicity in ICR mouse assessed as effect on histological architecture of spleen at 500 to 2000 mg/kg, ip administered for 14 days by hematoxylin and eosin staining based histopathological assay. In kind it is organism-based. As to conditions: in vivo, 336 h, dose 500-2000 mg/kg, time 14 day.
Data set [6] in a line: Inhibition of bacterial VIM-2 (27 to 266 residues) expressed in Escherichia coli Transetta (DE3) using FC-5 as substrate preincubated with enzyme for 10 mins followed by substrate addition in presence of 100 uM Zn2+ by fluorescence based analysis. Set-up: species or system Bacteria.
The subject of data set [7] is Escherichia coli. In words: Potentiation of meropenem-induced antibacterial activity against Escherichia coli C1541 expressing IMP-1 assessed as meropenem MIC at 10 ug/ml incubated for 18 to 20 hrs by broth microtiter dilution method (reference value: 32 ug/ml). In kind it is functional. As to conditions: dose 10 µg/ml, time 18-20 hrs.
Data set [8] relates to Escherichia coli. As to the kind of experiment: Potentiation of meropenem-induced antibacterial activity against Escherichia coli C1541 expressing VIM-2 assessed as fold reduction in meropenem MIC at 10 ug/ml incubated for 18 to 20 hrs by CLSI based broth microtiter dilution method. In kind it is functional. The settings on record: dose 10 µg/ml; time 18-20 hrs.
Data set [9] can be described thus: Tmax in Sprague-Dawley rat at 100 mg/kg, ip by UPLC analysis. The format is ADME, organism-based. The settings on record: in vivo.
Data set [10] relates to Pseudomonas aeruginosa. In words: Potentiation of meropenem-induced antibacterial activity against Pseudomonas aeruginosa 5621 expressing VIM-2 assessed as meropenem MIC at 100 ug/ml incubated for 18 to 20 hrs in presence of meropenem by CLSI based broth microtiter dilution method (reference value: 64 ug/ml). As to conditions: dose 100 µg/ml, time 18-20 hrs. In kind it is functional.

The subject of data set [11] is Escherichia coli. As to the kind of experiment: Synergistic antibacterial activity against Escherichia coli C1541 expressing VIM-2 assessed as fractional inhibitory concentration index incubated for 18 to 20 hrs in presence of meropenem and 100 uM of zinc sulfate by checkerboard microdilution assay. The format is functional. As to conditions: time 18-20 hrs. Background: Broth dilution looks for growth in wells or tubes with falling amounts of substance.

The subject of data set [12] is Escherichia coli. In words: Potentiation of meropenem-induced antibacterial activity against Escherichia coli C1541 expressing IMP-1 assessed as fold reduction in meropenem MIC at 10 ug/ml incubated for 18 to 20 hrs by CLSI based broth microtiter dilution method. In kind it is functional. As to conditions: dose 10 µg/ml; time 18-20 hrs.
Data set [13] is described as follows: Toxicity in ICR mouse assessed as change in behavior at 500 to 2000 mg/kg, ip administered for 14 days. In kind it is organism-based. The settings on record: in vivo, 336 h, dose 500-2000 mg/kg, time 14 day.

The source made the active and inactive calls. The calls are words filed in the database; no cut-off is given here.

For orientation: IC50 means the concentration that gives 50% inhibition. For orientation: MIC means the least concentration at which growth counts as inhibited. Usually Tmax stands for the time from dosing to the highest level.

For the compound `O=C(O)c1nccn1Cc1ccncc1`, the outcome with Pseudomonas aeruginosa [1], in the data set with Escherichia coli [3] and in the data set with Pseudomonas aeruginosa [4] was Active. For the same compound, the Activity result in data set [2], in data set [5] and in data set [13] was “Non-Toxic” throughout. Further, in data set [6], the IC50 turned out to be 1.75 µM. For the same compound, the minimal inhibitory concentration (MIC) in the data set with Escherichia coli [7] and in the data set on Pseudomonas aeruginosa [10] was 32 µg/mL throughout. Also, the “fold change (FC)” value was over 64 with Escherichia coli [8] and 1 in the data set with Escherichia coli [12]. Moreover, in data set [9], the Tmax is 9 min. Further, the “fractional inhibitory concentration index (FICI)” value in the data set with Escherichia coli [11] is listed as 0.05.

For the origin of these results see ChEMBL document CHEMBL5154646, “Structure-guided optimization of 1H-imidazole-2-carboxylic acid derivatives affording potent VIM-Type metallo-β-lactamase inhibitors” (Eur J Med Chem, 2022).
